Experimental findings from patent publication US20160353747A1, “COMPOSITIONS AND METHODS FOR ACHIEVING A BIOLOGICAL EFFECT IN TARGET VEGETATION” (Ento Bio LLC, priority 2015, published 2016) are described below.

For the assay, the system named is zinnia (Zinnia peruviana var. “Giant Dahlia”) seedlings. The assay is described as follows: Herbicidal effect (percent control) on zinnia seedlings. Type of assay: in vivo. Conditions: Enz 0 mg, 2 mL dose. The method, then:
In one example, combinations of cellulase and hemicellulase from Trichoderma viride (i.e. depolymerase, labeled “Enz” in Table 1), bovine serum albumin (i.e. non-depolymerase protein, labeled “BSA” in Table 1), and glyphosate (labeled “Gly” in Table 1) are blended and applied in 2 mL doses directly to zinnia (Zinnia peruviana var. “Giant Dahlia”) seedlings at the first true leaf stage. Treatments ranged from 0-1.6 mg of depolymerase that consisted of cellulase from Trichoderma viride and hemicellulase from Aspergillus niger in a ratio of 10.5:6, respectively; non-depolymerase BSA from 0-24 mg; and glyphosate from 0-0.3 mg. […] Herbicidal effect was assessed 12 days after treatment (DAT). Percent control ratings ascertained the extent of control, i.e. reduction in growth, and were scored on a basis of 0 to 100 where 100 represents complete killing of the plants and 0 represents no reduction in growth as compared to the untreated control.

For `O=C(O)CNCP(=O)(O)O` [Gly, glyphosate], the “Percent Control 12 DAT” value runs as follows: (Gly 0.003 mg, BSA 0 mg) 0%; (Gly 0.03 mg, BSA 0 mg) 28%; (Gly 0.3 mg, BSA 0 mg) 28%.

bovine serum albumin [BSA]: the “Percent Control 12 DAT” value by setting is: (Gly 0 mg, BSA 0.24 mg) 3%; (Gly 0 mg, BSA 2.4 mg) 7%; (Gly 0 mg, BSA 24 mg) 13%.
